One assay concerns the target SARS-CoV-2 3CL-protease (Severe acute respiratory syndrome coronavirus 2 (2019-nCoV) (SARS-CoV-2), UniProt P0DTD1). The experiment in a line: SARS-CoV-2 3C-like (3CL) protease fluorescence assay (FRET). It is filed as biochemical. Particulars: recombinant SARS-CoV-2 3CL-protease 10 nM, 30 min preincubation, substrate 40 μM, duplicate.
The test system of assay [1] is 229E human coronavirus (hCoV). Briefly: microbe, parasite or virus in culture. It is filed as cell-based. Particulars: unidentified human coronavirus, MRC5, 144 h; MRC-5 cells, MOI 0.05, 6 days at 34° C., ATPlite, duplicate. A general note: ATP-based viability assays read luminescence as a measure of living cells.
Another assay deals with norovirus. Particulars: phase II randomized double-blind trial, patients; cited from earlier work.

A value given as a limit tells only on which side of the number the result lay.

Take `CC(C)[C@H](NC(=O)OCc1ccccc1)C(=O)CC(Cc1ccc(F)cc1)C(=O)N1C[C@]2(C[C@H]1C#N)C(=O)Nc1ccccc12` (some centres unmarked) [Example 1]: at SARS-CoV-2 3CL-protease, the IC50 – broadly, the concentration needed to halve the response being measured – fell in the range of 0.1 to 1 µM. Also, the EC50 (commonly the midpoint of the concentration-response curve) in assay [1] is more than 1 µM.
As for `CC(=O)Oc1ccccc1C(=O)Nc1ncc([N+](=O)[O-])s1` [NTZ, nitazoxanide], the “reduction of gastroenteritis symptoms” value in the assay with norovirus was 24 h.
Take `Cc1cc(C(=O)N[C@H](C(=O)C[C@@H](Cc2ccc(F)cc2)C(=O)N2C[C@]3(C[C@H]2C#N)C(=O)Nc2ccccc23)C(C)C)no1` [Example 5]: the half-maximal inhibitory concentration (IC50) on SARS-CoV-2 3CL-protease is less than 0.1 µM.
Turning to `CC(C)CC(CC(=O)[C@@H](NC(=O)OCc1ccccc1)C(C)C)C(=O)N1C[C@]2(C[C@H]1C#N)C(=O)Nc1ccccc12` (some centres unmarked) [Example 3], on SARS-CoV-2 3CL-protease, the IC50 is more than 1 µM. The same compound yielded an EC50 in assay [1] of more than 1 µM.
In the case of `CCOC(=O)/C=C/[C@@H]1C[C@@]2(CN1C(=O)[C@@H](CC(=O)[C@@H](NC(=O)OC(C)(C)C)C(C)C)Cc1ccc(F)cc1)C(=O)Nc1ccccc12` [Example 25], the concentration for half-maximal inhibition (IC50) at SARS-CoV-2 3CL-protease was more than 1 µM.
On the same count and under the same terms, the same measure for `CCOC(=O)/C=C/[C@@H]1C[C@@]2(CN1C(=O)[C@@H](CC(=O)[C@@H](NC(=O)c1cc(C)on1)C(C)C)Cc1ccc(F)cc1)C(=O)Nc1ccccc12` [Example 6]: more than 1 µM.
As to `CC(C)[C@H](NC(=O)C(F)(F)F)C(=O)CC(Cc1ccc(F)cc1)C(=O)N1C[C@]2(C[C@H]1C#N)C(=O)Nc1ccccc12` (some centres unmarked) [Example 2], the IC50 at SARS-CoV-2 3CL-protease lay within 0.1 to 1 µM. The compound further gave an EC50 in assay [1] of more than 1 µM.
Turning to `CC(C)[C@H](NC(=O)OC(C)(C)C)C(=O)C[C@@H](Cc1ccc(F)cc1)C(=O)N1C[C@]2(C[C@H]1C#N)C(=O)Nc1ccccc12` [Example 26], the IC50 on SARS-CoV-2 3CL-protease is less than 0.1 µM.

These data come from US20230331734A1, “NOVEL SPIROPYRROLIDINE DERIVED ANTIVIRAL AGENTS” (ENANTA PHARMACEUTICALS, INC., priority 2022, published 2023).
